Test results as given in BigSolDB 2.1.

Settings: in water

Compound	solubility (mole fraction) (333.15 K)	solubility (mole fraction) (343.15 K)	solubility (mole fraction) (353.15 K)	solubility (mole fraction) (363.15 K)	solubility (mole fraction) (373.15 K)	solubility (mole fraction) (323.15 K)
OCCc1ccccc1	0.0051	0.0055	0.0056	0.0065	0.0065	
O=Cc1ccccc1			0.00236	0.00261	0.0036	
O=Cc1ccco1			0.028	0.0314	0.034	
CCCCCC1CCC(=O)O1 (configuration not stated)	0.00087	0.00099	0.00109	0.00118	0.00128	0.00072
